# According to the supplement of paper PMC9663587:
# Compound: CC(=O)Nc1cccc(-n2c(=O)n(C3CC3)c(=O)c3c(Nc4ccc(I)cc4F)n(C)c(=O)c(C)c32)c1
# 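Further: breast cancer and non-malignant breast epithelial cell lines, Deep Dye Drop or Dye Drop imaging, nine half-log doses, GR normalized to time-zero plates and DMSO-only controls.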
row,Cell Line,"GR50, 72 h [µM]"
1,MCF10A,0.00336
2,MCF12A,0.00833
3,MDAMB231,0.00263
4,MDAMB415,0.278
5,MDAMB436,> 1
6,MDAMB468,0.442
7,PDX1258,> 1
8,PDXHCI002,> 1
9,SKBR3,> 1
10,SUM52PE,> 1
11,SUM159,0.0316
12,SUM229PE,0.00774
13,SUM1315,0.0211

# Compound: O=C(c1cc(Cc2n[nH]c(=O)c3ccccc23)ccc1F)N1CCN(C(=O)C2CC2)CC1 [Olaparib/AZD2281]
row,Cell Line,"GR50, 72 h [µM]"
1,MCF10A,> 10
2,MCF12A,> 10
3,MDAMB231,> 10
4,MDAMB415,> 10
5,MDAMB436,1.53
6,MDAMB468,7.92
7,PDX1258,> 10
8,PDXHCI002,3.93
9,SKBR3,> 10
10,SUM52PE,> 10
11,SUM159,> 10
12,SUM229PE,> 10
13,SUM1315,2.03

# Compound: COc1cccc2c1C(=O)c1c(O)c3c(c(O)c1C2=O)C[C@@](O)(C(=O)CO)C[C@@H]3O[C@H]1C[C@H](N)[C@H](O)[C@H](C)O1 [Doxorubicin]
row,Cell Line,"GR50, 72 h [µM]"
1,MCF10A,0.0108
2,MCF12A,0.0155
3,MDAMB231,0.00504
4,MDAMB415,0.00521
5,MDAMB436,0.00761
6,MDAMB468,0.00542
7,PDX1258,0.00914
8,PDXHCI002,0.00405
9,SKBR3,0.00673
10,SUM52PE,0.049
11,SUM159,0.021
12,SUM229PE,0.031
13,SUM1315,0.0182

# Compound: O=C1NC(=O)[C@@H](c2cn3c4c(cccc24)CCC3)[C@@H]1c1c[nH]c2ccccc12 [Tivantinib/ARQ197]
row,Cell Line,"GR50, 72 h [µM]"
1,MCF10A,0.181
2,MCF12A,0.291
3,MDAMB231,0.416
4,MDAMB415,1.5
5,MDAMB436,0.368
6,MDAMB468,0.307
7,PDX1258,0.397
8,PDXHCI002,0.238
9,SKBR3,0.273
10,SUM52PE,0.33
11,SUM159,0.408
12,SUM229PE,0.083
13,SUM1315,0.37

# Compound: CNC(=O)c1cccc(-c2ccc3c(N4CCOC[C@@H]4C)nc(N4CCOC[C@@H]4C)nc3n2)c1 [AZD2014]
row,Cell Line,"GR50, 72 h [µM]"
1,MCF10A,0.473
2,MCF12A,0.0768
3,MDAMB231,0.583
4,MDAMB415,0.006
5,MDAMB436,> 10
6,MDAMB468,0.523
7,PDX1258,0.401
8,PDXHCI002,9.69
9,SKBR3,< 0.001
10,SUM52PE,0.0163
11,SUM159,0.176
12,SUM229PE,0.0116
13,SUM1315,0.0012

# Compound: C[C@@H]1COCCN1c1cc(C2([S@](C)(=N)=O)CC2)nc(-c2cc[nH]c3nccc2-3)n1 [AZD6738]
row,Cell Line,"GR50, 72 h [µM]"
1,MCF10A,9.08
2,MCF12A,3.06
3,MDAMB231,8.89
4,MDAMB415,> 10
5,MDAMB436,9.07
6,MDAMB468,> 10
7,PDX1258,3.53
8,PDXHCI002,> 10
9,SKBR3,0.845
10,SUM52PE,5.11
11,SUM159,9.98
12,SUM229PE,3.34
13,SUM1315,4.46

# Compound: CCN1CCN(Cc2ccc(Nc3ncc(F)c(-c4cc(F)c5nc(C)n(C(C)C)c5c4)n3)nc2)CC1
row,Cell Line,"GR50, 72 h [µM]"
1,MCF10A,0.34
2,MCF12A,5.94
3,MDAMB231,0.0468
4,MDAMB415,0.00897
5,MDAMB436,2.1
6,MDAMB468,2.34
7,PDX1258,0.674
8,PDXHCI002,0.0484
9,SKBR3,0.0353
10,SUM52PE,0.376
11,SUM159,0.565
12,SUM229PE,0.531
13,SUM1315,0.0493

# Compound: CC[C@@H]1C(=O)N(C)c2cnc(Nc3ccc(C(=O)N[C@H]4CC[C@H](N5CCN(CC6CC6)CC5)CC4)cc3OC)nc2N1C(C)C [Volasertib/BI6727]
row,Cell Line,"GR50, 72 h [µM]"
1,MCF10A,0.0221
2,MCF12A,0.0519
3,MDAMB231,0.00436
4,MDAMB415,0.0112
5,MDAMB436,0.00518
6,MDAMB468,0.0021
7,PDX1258,0.00743
8,PDXHCI002,0.00369
9,SKBR3,0.00545
10,SUM52PE,0.0198
11,SUM159,0.0247
12,SUM229PE,0.0135
13,SUM1315,0.0095

# Compound: CC(=O)O[C@H]1C(=O)[C@@]2(C)[C@H]([C@H](OC(=O)c3ccccc3)[C@]3(O)C[C@H](OC(=O)[C@H](O)[C@@H](NC(=O)c4ccccc4)c4ccccc4)C(C)=C1C3(C)C)[C@]1(OC(C)=O)CO[C@@H]1C[C@@H]2O [Paclitaxel]
row,Cell Line,"GR50, 72 h [µM]"
1,MCF10A,0.00268
2,MCF12A,0.00577
3,MDAMB231,0.00232
4,MDAMB415,0.000687
5,MDAMB436,0.00371
6,MDAMB468,0.00135
7,PDX1258,0.00215
8,PDXHCI002,0.00249
9,SKBR3,0.00191
10,SUM52PE,0.00165
11,SUM159,0.00542
12,SUM229PE,0.00176
13,SUM1315,0.00246

# Compound: COc1cc2c(Oc3ccc4[nH]c(C)cc4c3F)ncnc2cc1OCCCN1CCCC1 [Cediranib/AZD2171]
row,Cell Line,"GR50, 72 h [µM]"
1,MCF10A,9.75
2,MCF12A,> 10
3,MDAMB231,5.1
4,MDAMB415,1.46
5,MDAMB436,3.61
6,MDAMB468,3.92
7,PDX1258,4.71
8,PDXHCI002,1.47
9,SKBR3,6.2
10,SUM52PE,0.17
11,SUM159,> 10
12,SUM229PE,8.64
13,SUM1315,1.47

# Compound: O=C(CCCCCCC(=O)Nc1ccccc1)NO [Vorinostat]
row,Cell Line,"GR50, 72 h [µM]"
1,MCF10A,2.53
2,MCF12A,6.67
3,MDAMB231,1.24
4,MDAMB415,2.92
5,MDAMB436,2.68
6,MDAMB468,1.57
7,PDX1258,1.57
8,PDXHCI002,0.282
9,SKBR3,0.767
10,SUM52PE,4.26
11,SUM159,3.28
12,SUM229PE,3.48
13,SUM1315,1.76

# Compound: CN(C)C/C=C/C(=O)NC1=CC=C(C=C1)C(=O)NC2=CC=CC(=C2)NC3=NC=NC(=C3)C4=CNC5=CC=CC=C54 [THZ-P1-2]
row,Cell Line,"GR50, 72 h [µM]"
1,MCF10A,7
2,MCF12A,8.04
3,MDAMB231,4.94
4,MDAMB415,0.0764
5,MDAMB436,4.3
6,MDAMB468,3.59
7,PDX1258,0.492
8,PDXHCI002,> 10
9,SKBR3,4.25
10,SUM52PE,6.06
11,SUM159,6.79
12,SUM229PE,5.54
13,SUM1315,7.11

# Compound: NC1(C(=O)N[C@@H](CCO)c2ccc(Cl)cc2)CCN(c2nc[nH]c3nccc2-3)CC1 [AZD5363]
row,Cell Line,"GR50, 72 h [µM]"
1,MCF10A,> 10
2,MCF12A,> 10
3,MDAMB231,> 10
4,MDAMB415,0.0101
5,MDAMB436,> 10
6,MDAMB468,> 10
7,PDX1258,3.52
8,PDXHCI002,> 10
9,SKBR3,2.76
10,SUM52PE,3.52
11,SUM159,9.8
12,SUM229PE,> 10
13,SUM1315,> 10

# Compound: Cc1nc(-c2cn3c(n2)-c2ccc(-c4cnn(C(C)(C)C(N)=O)c4)cc2OCC3)n(C(C)C)n1 [Taselisib/GDC0032]
row,Cell Line,"GR50, 72 h [µM]"
1,MCF10A,0.119
2,MCF12A,1.11
3,MDAMB231,2.2
4,MDAMB415,0.293
5,MDAMB436,4.66
6,MDAMB468,2.35
7,PDX1258,0.996
8,PDXHCI002,0.6
9,SKBR3,0.00617
10,SUM52PE,0.0267
11,SUM159,0.182
12,SUM229PE,0.377
13,SUM1315,0.516

# Compound: CC(C)Nc1cc(-c2c[nH]c(C(=O)N[C@H](CO)c3cccc(Cl)c3)c2)c(Cl)cn1 [BVD523]
row,Cell Line,"GR50, 72 h [µM]"
1,MCF10A,1.28
2,MCF12A,5.73
3,MDAMB231,1.13
4,MDAMB415,> 10
5,MDAMB436,> 10
6,MDAMB468,1.64
7,PDX1258,4.62
8,PDXHCI002,4.27
9,SKBR3,6.46
10,SUM52PE,5.04
11,SUM159,1.91
12,SUM229PE,1.6
13,SUM1315,6

# Compound: CS(=O)(=O)N1CCN(Cc2cc3nc(-c4cccc5[nH]ncc45)nc(N4CCOCC4)c3s2)CC1 [Pictilisib/GDC0941]
row,Cell Line,"GR50, 72 h [µM]"
1,MCF10A,1.88
2,MCF12A,6.67
3,MDAMB231,5.32
4,MDAMB415,0.597
5,MDAMB436,5.27
6,MDAMB468,2.33
7,PDX1258,1.7
8,PDXHCI002,2.25
9,SKBR3,0.114
10,SUM52PE,0.477
11,SUM159,4.53
12,SUM229PE,3.92
13,SUM1315,0.511

# Compound: CCCCOc1c(C(=O)c2c(F)cc(C)cc2F)c[nH]c2nncc1-2
row,Cell Line,"GR50, 72 h [µM]"
1,MCF10A,0.504
2,MCF12A,7.57
3,MDAMB231,1.16
4,MDAMB415,1.87
5,MDAMB436,1.02
6,MDAMB468,0.133
7,PDX1258,< 0.001
8,PDXHCI002,3.29
9,SKBR3,0.0869
10,SUM52PE,0.112
11,SUM159,0.159
12,SUM229PE,0.0124
13,SUM1315,0.00376
